Blank lines part the entries; values can stand above or below the molecule they belong to.
What was measured:
[1] = molecular target: T1, extracellular-signal-regulated kinase 2 (ERK2) (Homo sapiens, UniProt P28482); assay: biochemical; design: Differential scanning fluorimetry, SYPRO Orange, 2 uM ERK2, melting temperature shift with 12 uM inhibitor; conditions: for ΔTm at 12 µM: read-out: ΔTm WT
T1 construct: gene MAPK1; recombinant ERK2 wild-type

D321G = molecular target: T2, D321G (Homo sapiens, UniProt P28482, D321G); assay: biochemical; design: Differential scanning fluorimetry, SYPRO Orange, 2 uM ERK2, melting temperature shift with 12 uM inhibitor; conditions: for ΔTm at 12 µM: read-out: ΔTm D321G
T2 construct: gene MAPK1; recombinant ERK2 D321G

D321N = molecular target: T3, D321N (Homo sapiens, UniProt P28482, D321N); assay: biochemical; design: Differential scanning fluorimetry, SYPRO Orange, 2 uM ERK2, melting temperature shift with 12 uM inhibitor; conditions: for ΔTm at 12 µM: read-out: ΔTm D321N
T3 construct: gene MAPK1; recombinant ERK2 D321N

[2] = molecular target: T4, extracellular-signal-regulated kinase 2 (ERK2) E322K (Homo sapiens, UniProt P28482, E322K); assay: biochemical; design: Differential scanning fluorimetry, SYPRO Orange, 2 uM ERK2, melting temperature shift with 12 uM inhibitor; conditions: for ΔTm at 12 µM: read-out: ΔTm E322K
T4 construct: gene MAPK1; recombinant ERK2 E322K

D321A = molecular target: T5, D321A (Homo sapiens, UniProt P28482, D321A); assay: biochemical; design: Differential scanning fluorimetry, SYPRO Orange, 2 uM ERK2, melting temperature shift with 12 uM inhibitor; conditions: for ΔTm at 12 µM: read-out: ΔTm D321A
T5 construct: gene MAPK1; recombinant ERK2 D321A

D321V = molecular target: T6, D321V (Homo sapiens, UniProt P28482, D321V); assay: biochemical; design: Differential scanning fluorimetry, SYPRO Orange, 2 uM ERK2, melting temperature shift with 12 uM inhibitor; conditions: for ΔTm at 12 µM: read-out: ΔTm D321V
T6 construct: gene MAPK1; recombinant ERK2 D321V

D321E = molecular target: T7, D321E (Homo sapiens, UniProt P28482, D321E); assay: biochemical; design: Differential scanning fluorimetry, SYPRO Orange, 2 uM ERK2, melting temperature shift with 12 uM inhibitor; conditions: for ΔTm at 12 µM: read-out: ΔTm D321E
T7 construct: gene MAPK1; recombinant ERK2 D321E

[3] = molecular target: T8, non-phosphorylated ERK2 wild-type (extracellular-signal-regulated kinase 2) (human, UniProt P28482 1-360); assay: ITC; Affinity ITC (TA-Instruments), reversed mode: ERK2 protein (90-145 µM) in the cell, peptide (500 µM) in the syringe; 30 °C; 20 mM Hepes pH 7.5, 0.15 M NaCl, 0.5 mM TCEP; single binding site model; conditions: both partners purified
T8 construct: ERK2 (MAPK1), human, wild-type; Expressed from pNIC28-Bsa4; also called NP-ERK2 wild-type; NP-ERK2; source: E. coli Rosetta with phosphatase, purified (Ni-NTA, TEV cleavage, second Ni-NTA); not shown: His6, N-terminal, cleaved

[4] = molecular target: T9, phosphorylated ERK2 wild-type (human, UniProt P28482 1-360, phosphorylated at Thr185 and Tyr187); assay: as above; conditions: both partners purified
T9 construct: ERK2 (MAPK1), human, wild-type, phosphorylated on T185 and Y187 by co-expressed active MEK1; also called P-ERK2 wild-type; P-ERK2; not shown: His6, N-terminal, cleaved

ΔTm at 12 µM [1]: 11.6 °C
ΔTm at 12 µM (D321G): 12.2 °C
ΔTm at 12 µM (D321N): 12.7 °C
ΔTm at 12 µM [2]: 8.7 °C
ΔTm at 12 µM (D321A): 11 °C
ΔTm at 12 µM (D321V): 11.6 °C
ΔTm at 12 µM (D321E): 11.7 °C
Molecule: O=C(Nc1ccc2[nH]nc(-c3ccncc3)c2c1)[C@@H]1CCN(CC(=O)N2CCN(c3ccc(-c4ncccn4)cc3)CC2)C1 [SCH772984]

ΔTm at 12 µM [1]: 7.9 °C
ΔTm at 12 µM (D321G): 9.1 °C
ΔTm at 12 µM (D321N): 9.5 °C
ΔTm at 12 µM [2]: 4.6 °C
ΔTm at 12 µM (D321A): 8.3 °C
ΔTm at 12 µM (D321V): 8.3 °C
ΔTm at 12 µM (D321E): 8.8 °C
Molecule: CC(C)Nc1cc(-c2c[nH]c(C(=O)N[C@H](CO)c3cccc(Cl)c3)c2)c(Cl)cn1 [Ulixertinib]

Kd [3]: 23.7 µM
B1: pepMEK2, docking peptide derived from the upstream activating kinase MEK2 (peptide)
peptide: MLARRKPVLPALTINP
notes: docking peptide from MEK2 (MAP2K2), N-terminal stretch; Solubilised in 5% DMSO and diluted in buffer; source: synthetic peptide, bought: GenScript

Further lines, the molecule ahead of its results:

Molecule: COC[C@H]1Cn2cc(-c3nc(Nc4ccnn4C)ncc3C)nc2C(=O)N1Cc1ccc(F)c(F)c1 [AZD0364]
ΔTm at 12 µM [1]: 12.8 °C
ΔTm at 12 µM (D321G): 13.9 °C
ΔTm at 12 µM (D321N): 14.5 °C
ΔTm at 12 µM [2]: 10.2 °C
ΔTm at 12 µM (D321A): 13.3 °C
ΔTm at 12 µM (D321V): 13 °C
ΔTm at 12 µM (D321E): 13.7 °C

Molecule: Nc1[nH]nc2nnc(-c3c(-c4ccccc4)nn4ccccc34)cc12 [FR 180204]
ΔTm at 12 µM [1]: 2.8 °C
ΔTm at 12 µM (D321G): 4.6 °C
ΔTm at 12 µM (D321N): 5.4 °C
ΔTm at 12 µM [2]: -1.3 °C
ΔTm at 12 µM (D321A): 3.2 °C
ΔTm at 12 µM (D321V): 5 °C
ΔTm at 12 µM (D321E): 3.7 °C

Molecule: Cn1nccc1Nc1nccc(-c2ccn([C@H](CO)c3ccc(Cl)c(F)c3)c(=O)c2)n1 [GDC-0994]
ΔTm WT ([1]; 12 µM, binder): 10.30 °C
ΔTm D321G (D321G; 12 µM, binder): 11.80 °C
ΔTm D321N (D321N; 12 µM, binder): 12.20 °C
ΔTm E322K ([2]; 12 µM, binder): 6.80 °C
ΔTm D321A (D321A; 12 µM, binder): 10.70 °C
ΔTm D321V (D321V; 12 µM, binder): 10.30 °C
ΔTm D321E (D321E; 12 µM, binder): 11.20 °C

Molecule: O=C1Nc2cc3[nH]nc(-c4ccncc4)c3cc2CN1Cc1ccccc1 [KO-947]
ΔTm at 12 µM [1]: 11.8 °C
ΔTm at 12 µM (D321G): 13.1 °C
ΔTm at 12 µM (D321N): 13.6 °C
ΔTm at 12 µM [2]: 9.2 °C
ΔTm at 12 µM (D321A): 12.3 °C
ΔTm at 12 µM (D321V): 11.8 °C
ΔTm at 12 µM (D321E): 12.8 °C

Molecule: Cn1nccc1Nc1nccc(-c2cc3c(s2)C(C)(C)N(CCN2CCOCC2)C3=O)n1 [LY3214996]
ΔTm at 12 µM [1]: 9.4 °C
ΔTm at 12 µM (D321G): 10.8 °C
ΔTm at 12 µM (D321N): 11.2 °C
ΔTm at 12 µM [2]: 6.6 °C
ΔTm at 12 µM (D321A): 9.8 °C
ΔTm at 12 µM (D321V): 10 °C
ΔTm at 12 µM (D321E): 10.3 °C

B2: Kinase Interaction Motif (KIM) peptide of DUSP6 (peptide)
peptide: GIMLRRLQKGNLPVRAL
notes: Solubilised in 5% DMSO and diluted in buffer; also called KIM of DUSP6; KIM peptide DUSP6; source: synthetic peptide, bought: GenScript
Kd [4]: 14.4 µM

Reference: article PMC10252016, “Mutation in the Common Docking Domain Affects MAP Kinase ERK2 Catalysis and Stability” (Cancers, 2023)
